Each structure is given as a SMILES string. Converted amounts (≈) assume the structure as drawn.

The record followed here is patent publication US4639433A, “Glycopeptide derivatives” (Eli Lilly and Company, priority 1985, dated 1987).

One experiment deals with Staphylococcus aureus. Description: Experimental bacterial infection in mice, ED50. Format: in vivo. Conditions: two doses, administered subcutaneously.
Another experiment concerns Streptococcus pyogenes. The experiment is described as follows: Experimental bacterial infection in mice, ED50. The format is in vivo. The following applies: two doses, administered subcutaneously.
The subject of another experiment is Streptococcus pneumoniae. The experiment is described as follows: Experimental bacterial infection in mice, ED50. Conditions: two doses, administered subcutaneously. Format: in vivo.
For experiment [1], the system named is Staphylococcus aureus NRRL B313. The following applies: agar dilution. In general terms: Agar dilution tests growth on a series of plates holding different concentrations.
The test system of experiment [2] is Staphylococcus aureus V41. Conditions: agar dilution.
For experiment [3], the system named is Staphylococcus aureus X400. The following applies: agar dilution.
Experiment [4] relates to Staphylococcus aureus S13E. The following applies: agar dilution.
In experiment [5] the test system is Staphylococcus epidermidis EPI1. Conditions: agar dilution.
Experiment [6] concerns Staphylococcus epidermidis 222. The following applies: agar dilution.
For experiment [7], the system named is Streptococcus pyogenes C203. The following applies: agar dilution.
The subject of experiment [8] is Streptococcus pneumoniae Park 1. Conditions: agar dilution.
Experiment [9] concerns Streptococcus faecium ATCC 9790. Conditions: agar dilution.
Experiment [10] relates to Streptococcus sp. group D 2041. The following applies: agar dilution.
For experiment [11], the system named is Haemophilus influenzae C.L. Conditions: agar dilution.
Experiment [12] concerns Haemophilus influenzae 76. Conditions: agar dilution.
The subject of the next experiment is Escherichia coli N10. The following applies: agar dilution.
The test system of the next experiment is Escherichia coli EC14. The following applies: agar dilution.
The subject of another experiment is Escherichia coli TEM. The following applies: agar dilution.
The subject of experiment [13] is Klebsiella pneumoniae X26. The following applies: agar dilution.
For experiment [14], the system named is Klebsiella pneumoniae X68. Conditions: agar dilution.
For experiment [15], the system named is Klebsiella pneumoniae KAE. The following applies: agar dilution.

With `CCCC(=O)NC1(C)CC(OC2C(Oc3c4cc5cc3Oc3ccc(cc3Cl)C(O)C3NC(=O)C(NC(=O)C5NC(=O)C(CC(N)=O)NC(=O)C(NC(=O)C(CC(C)C)NC)C(O)c5ccc(c(Cl)c5)O4)c4ccc(O)c(c4)-c4c(O)cc(O)cc4C(C(=O)O)NC3=O)OC(CO)C(O)C2O)OC(C)C1O` (stereo not drawn) [Compound 1, N^van --(1-oxo-n-butyl)vancomycin], the ED50 with Staphylococcus aureus came to 6.3 mg/kg/2; in the experiment with Streptococcus pyogenes it was 5.5 mg/kg/2; in the experiment with Streptococcus pneumoniae, 3.6 mg/kg/2. Also, the MIC in [1] was determined as 2 µg/mL (≈ 1.32 µM); in experiment [2], 2 µg/mL (≈ 1.32 µM); in [3], 2 µg/mL (≈ 1.32 µM); in experiment [4], 2 µg/mL (≈ 1.32 µM); in [5] it was 8 µg/mL (≈ 5.27 µM); in experiment [6], 4 µg/mL (≈ 2.63 µM). Moreover, the MIC in experiment [7] is 1 µg/mL (≈ 0.658 µM); in experiment [8] it was 1 µg/mL (≈ 0.658 µM); in experiment [9] it was 2 µg/mL (≈ 1.32 µM); in experiment [10], 8 µg/mL (≈ 5.27 µM); in [11] it was “-- (not active at 128 mcg/ml)”; in [12] it was “-- (not active at 128 mcg/ml)”. Also, the MIC entry (in the experiment with Escherichia coli N10; against Escherichia coli EC14; in the experiment with Escherichia coli TEM; in experiment [13]; in [14]; in [15]) was “-- (not active at 128 mcg/ml)” throughout.
In the case of `CCCCCCCC(=O)NC1(C)CC(OC2C(Oc3c4cc5cc3Oc3ccc(cc3Cl)C(O)C3NC(=O)C(NC(=O)C5NC(=O)C(CC(N)=O)NC(=O)C(NC(=O)C(CC(C)C)NC)C(O)c5ccc(c(Cl)c5)O4)c4ccc(O)c(c4)-c4c(O)cc(O)cc4C(C(=O)O)NC3=O)OC(CO)C(O)C2O)OC(C)C1O` (stereo not drawn) [Compound 3, N^van --(1-oxo-n-octyl)vancomycin], the ED50 worked out at 6.9 mg/kg/2 in the experiment on Staphylococcus aureus, 4.4 mg/kg/2 with Streptococcus pyogenes and 4.8 mg/kg/2 in the experiment with Streptococcus pneumoniae. The MIC was found to be 1 µg/mL (≈ 0.635 µM) in experiment [1]; 2 µg/mL (≈ 1.27 µM) in experiment [2]; 2 µg/mL (≈ 1.27 µM) in experiment [3]; 2 µg/mL (≈ 1.27 µM) in [4]; 8 µg/mL (≈ 5.08 µM) in experiment [5]; 2 µg/mL (≈ 1.27 µM) in experiment [6]. For the same compound, the MIC in experiment [7] was 0.5 µg/mL (≈ 0.317 µM); in experiment [8] it was 0.5 µg/mL (≈ 0.317 µM); in experiment [9], 2 µg/mL (≈ 1.27 µM); in experiment [10] it was 4 µg/mL (≈ 2.54 µM); in experiment [11], “-- (not active at 128 mcg/ml)”; in [12] it was “-- (not active at 128 mcg/ml)”. Besides, the MIC result (against Escherichia coli N10; in the experiment on Escherichia coli EC14; against Escherichia coli TEM; in [13]; in experiment [14]; in [15]) was “-- (not active at 128 mcg/ml)” each time.
As for `C=CCCCCCCCCC(=O)NC1(C)CC(OC2C(Oc3c4cc5cc3Oc3ccc(cc3Cl)C(O)C3NC(=O)C(NC(=O)C5NC(=O)C(CC(N)=O)NC(=O)C(NC(=O)C(CC(C)C)NC)C(O)c5ccc(c(Cl)c5)O4)c4ccc(O)c(c4)-c4c(O)cc(O)cc4C(C(=O)O)NC3=O)OC(CO)C(O)C2O)OC(C)C1O` (stereo not drawn) [Compound 9, N^van --(1-oxo-10-n-decenyl)vancomycin], the ED50 came out at 3.7 mg/kg/2 with Staphylococcus aureus, 1.9 mg/kg/2 in the experiment with Streptococcus pyogenes and 1.8 mg/kg/2 with Streptococcus pneumoniae. The MIC in [1] is 0.5 µg/mL (≈ 0.309 µM); in [2], 0.5 µg/mL (≈ 0.309 µM); in [3], 0.5 µg/mL (≈ 0.309 µM); in [4] it was 0.5 µg/mL (≈ 0.309 µM); in experiment [5], 2 µg/mL (≈ 1.24 µM); in [6] it was 0.5 µg/mL (≈ 0.309 µM). In addition, the MIC was 0.25 µg/mL (≈ 0.155 µM) in experiment [7]; 0.25 µg/mL (≈ 0.155 µM) in experiment [8]; 0.25 µg/mL (≈ 0.155 µM) in [9]; 1 µg/mL (≈ 0.619 µM) in experiment [10]; “-- (not active at 128 mcg/ml)” in experiment [11]; 128 µg/mL (≈ 79.2 µM) in experiment [12]. Besides, the MIC result (against Escherichia coli N10; against Escherichia coli EC14; in the experiment on Escherichia coli TEM; in [13]; in experiment [14]; in experiment [15]) was “-- (not active at 128 mcg/ml)” throughout.
In the case of `CCCCCCCCCC(=O)NC1(C)CC(OC2C(Oc3c4cc5cc3Oc3ccc(cc3Cl)C(O)C3NC(=O)C(NC(=O)C5NC(=O)C(CC(N)=O)NC(=O)C(NC(=O)C(CC(C)C)NC)C(O)c5ccc(c(Cl)c5)O4)c4ccc(O)c(c4)-c4c(O)cc(O)cc4C(C(=O)O)NC3=O)OC(CO)C(O)C2O)OC(C)C1O` (stereo not drawn) [Compound 6, N^van-(1-oxo-n-Decyl)vancomycin], the ED50 in the experiment with Staphylococcus aureus was 5 mg/kg/2; with Streptococcus pyogenes, 2.9 mg/kg/2; in the experiment with Streptococcus pneumoniae it was 1.4 mg/kg/2. Further, the MIC in experiment [1] worked out at 0.5 µg/mL (≈ 0.312 µM); in experiment [2], 0.5 µg/mL (≈ 0.312 µM); in experiment [3], 0.5 µg/mL (≈ 0.312 µM); in experiment [4], 0.5 µg/mL (≈ 0.312 µM); in [5] it was 2 µg/mL (≈ 1.25 µM); in experiment [6] it was 1 µg/mL (≈ 0.624 µM). In addition, the MIC was 0.5 µg/mL (≈ 0.312 µM) in experiment [7]; 1 µg/mL (≈ 0.624 µM) in experiment [8]; 0.5 µg/mL (≈ 0.312 µM) in experiment [9]; 1 µg/mL (≈ 0.624 µM) in [10]; “-- (not active at 128 mcg/ml)” in [11]; “-- (not active at 128 mcg/ml)” in [12]. Besides, the MIC entry (in the experiment with Escherichia coli N10; in the experiment on Escherichia coli EC14; against Escherichia coli TEM; in experiment [13]; in experiment [14]; in experiment [15]) was “-- (not active at 128 mcg/ml)” in each case.
